The assay deals with T1, GCase (Cerezyme) (Homo sapiens, UniProt P04062, R534H).
T1 sequence (P04062 40-536 R534H): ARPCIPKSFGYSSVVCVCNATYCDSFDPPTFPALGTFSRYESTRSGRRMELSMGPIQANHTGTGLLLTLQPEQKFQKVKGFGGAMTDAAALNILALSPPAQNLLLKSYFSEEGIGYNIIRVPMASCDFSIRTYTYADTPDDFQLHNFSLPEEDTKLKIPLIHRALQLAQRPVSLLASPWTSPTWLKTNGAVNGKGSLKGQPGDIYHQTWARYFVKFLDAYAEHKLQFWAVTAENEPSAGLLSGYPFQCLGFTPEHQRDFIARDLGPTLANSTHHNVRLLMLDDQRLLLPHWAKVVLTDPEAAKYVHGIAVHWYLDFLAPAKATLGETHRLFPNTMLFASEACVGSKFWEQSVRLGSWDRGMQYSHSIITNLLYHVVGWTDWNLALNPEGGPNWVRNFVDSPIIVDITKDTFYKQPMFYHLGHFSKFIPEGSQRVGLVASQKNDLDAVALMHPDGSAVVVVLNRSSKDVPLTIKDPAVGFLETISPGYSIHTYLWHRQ
As to the kind of experiment: SPR, immobilized GCase on CM5 chip. The note with it: pH […] HEPES, […] EDTA, […] NaCl, […] Tween-20; no IFG; allosteric. Format: binding. In general terms: In SPR one partner is held on a chip, and binding of the other changes the refractive index at the surface.

The substance GT-02329 gave a Kd above 90 µM.

For GT-02287, the dissociation constant Kd fell in the range of 17 to 24 µM.

Broadly, the Kd is the constant that tells how readily two partners part at equilibrium.
